Data as given in patent US20050261264A1, “Rare-earth ternary complex” (priority 2000, published 2005).

How the values were obtained:
Type in all cases: physicochemical
[1] = Miscibility with a polymer matrix, visual evaluation; design: key to Miscibility, PMMA: ⊚: dissolves up to 30 wt %; ◯: dissolves up to 5 wt %; Δ: disperses up to 5 wt %, but there is turbidity; X: repelled at the polymer surface
Experimental: (§1) The miscibility of the rare earth complex with various media was evaluated as follows.
2) Miscibility with a Polymer Matrix
The rare earth complex serving as the sample was added in the concentrations listed with the evaluation criteria below relative to various media, and the miscibility was visually evaluated according to the following criteria. • ⊚: dissolves up to 30 wt % • ◯: dissolves up to 5 wt % • Δ: disperses up to 5 wt %, but there is turbidity • X: repelled at the polymer surface

[2] = Number of moles of bound water per mole of complex (TG-DTA); settings: for Bound water (number of moles of bound water per mole of complex): Table 1, dried samples for the ternary complexes
Experimental: The number of moles of bound water per mole of complex was measured using a TG-DTA 2000 from MAC Science.
A 20 g quantity of Eu(PMS)3 was added to 100 mL of isopropanol, then 43 g ([…] the molar amount of the Eu(PMS)3) of triphenylphosphine oxide (hereinafter referred to as TPPO) was added, and the system was refluxed for 3 hours, and then gradually cooled. The resulting white powder was filtered off. The white powder thus obtained was washed with hot n-hexane, and recrystallized with water-methanol to obtain 44 g of Eu(PMS)3(TPPO)8 in the form of white acicular crystals (yield: 85%). The TG-DTA was measured for these crystals, and it was found from the weight reduction at 100° C. that the number of moles of bound water per mole of complex was 2.93. The IR, NMR, UV absorption characteristics, and elemental analysis results for the obtained Eu(PMS)3(TPPO)8(H2O)2.93 are given below.
Eu(PMS)3(TPPO)8(H2O)2.93 obtained by the above synthesis method was dried in vacuo for 3 hours at 140° C. and a reduced pressure of […]. TG-DTA measurement for the resulting white powder was carried out to obtain a weight reduction at 100° C. It was found from the obtained value that the number of moles of bound water per mole of complex was 0.18.

[3] = Luminescence quantum yield and luminescence intensity in solution; settings: acetonitrile solution; for Relative luminescence intensity: Eu 0.05 mol/L; for Luminescence quantum yield: europium ion 0.05 mol/L, excitation 465 nm, luminescence 612 nm
Experimental: (§2) The intensity of luminescence and the luminescence quantum yield, the quotient of dividing the number of photons emitted from a sample by the number of photons absorbed into the sample, were measured with an SS-25 from JASCO Corporation.
The luminescence quantum yield of an acetonitrile solution of the Eu(PMS)3(TPPO)8 obtained in Example 1 (europium ion concentration: 0.05 mol/L) was measured (excitation wavelength: 465 nm, maximum luminescence wavelength: 612 nm, luminescence wavelength used in measurement: 612 nm).
The solutions prepared in Examples 12 to 14 and Comparative Examples 7 to 9 and Comparative Example B were measured for luminescence intensity at the respective maximum luminescence wavelengths.
The relative luminescence intensity of the solutions used in Examples 12 to 14 and Comparative Example B: (luminescence intensity in each of Examples 12 to 14)/(luminescence intensity in Comparative Example 7) was calculated, letting 1 be the luminescence intensity in Comparative Example 7 (solution of a rare earth complex in which the ligand Z was not coordinated).
Similarly, the relative luminescence intensity in Comparative Example 9: (luminescence intensity in Comparative Example 9)/(luminescence intensity in Comparative Example 8) was calculated, letting 1 be the luminescence intensity in Comparative Example 8 (solution of a known β-diketone-type of rare earth complex in which the ligand Z was not coordinated). The relative luminescence intensity of the solution used in Comparative Example B was 1.6 times.
The luminescence quantum yield of an acetone-d6 solution of the Nd(PMS)3(TPPO)8 obtained in Example 2 (neodymium ion concentration: 0.05 mol/L) was measured (excitation wavelength: 585 nm, maximum luminescence wavelength: 1064 nm, luminescence wavelength used in measurement: 1064 nm).
The solutions prepared in Examples 15 and 16 and Comparative Examples 10 were measured for luminescence intensity at the respective maximum luminescence wavelengths. The relative luminescence intensity in Examples 15 and 16: (luminescence intensity in each of Examples 15 and 16)/(luminescence intensity in Comparative Example 10) was calculated, letting 1 be the luminescence intensity in Comparative Example 10 (rare earth complex in which the ligand Z was not coordinated).

[4] = Miscibility with solvents, visual evaluation at 5 wt %; design: key: ⊚: dissolves at room temperature; ◯: dissolves when heated for 5 minutes at 40° C.; Δ: dissolves under heating, but cooling precipitates crystals; X: does not dissolve; settings: complex added at 5 wt %
Experimental: as §1
1) Miscibility with Solvents

[5] = Luminescence quantum yield and luminescence intensity in PMMA polymer matrix composition; settings: PMMA rod
Experimental: as §2
A 1 mL quantity of refined anhydrous methyl methacrylate (MMA), 0.5 mg of AIBN, and 148 mg (0.7 wt %) as the rare earth ion concentration) of the Eu (PMS)3 (TPPO)8 obtained in Example 1 were mixed, the mixture was transferred to a Pyrex tube, and the inside of the tube was deaerated and then sealed. By reacting for 5 hours at 60° C., the polymerization of MMA was carried out. The resulting PMMA containing Eu(PMS)3 (TPPO)8 was taken out of the Pyrex tube, and a rod-shaped polymer matrix composition was obtained.
(§3) The polymer matrix compositions prepared in Examples 17 to 19 and Comparative Example 11 were measured for luminescence intensity at the respective maximum luminescence wavelengths. The relative luminescence intensity in Examples 17 to 19: (luminescence intensity in each of Examples 17 to 19)/(luminescence intensity in Comparative Example 11) was calculated, letting 1 be the luminescence intensity in Comparative Example 11 (rare earth complex in which the ligand Z was not coordinated).
A rod-shaped polymer matrix composition containing […] was obtained in the same manner as in Example 17, except that 148 mg (rare earth ion concentration: 0.7 wt %) of the Nd(PMS)3 (TPPO)8 obtained in Example 2 was used instead of Eu(PMS)3 (TPPO)8.
as §3, with “20 and 21” for “17 to 19”, “12” for “11”, “20 and 21:” for “17 to 19:”, “20 and 21)/(luminescence” for “17 to 19)/(luminescence”, “12)” for “11)”

[6] = relative to Eu(HFA)3 (Comparative Example 8) = 1
[7] = relative to Eu(PMS)3 (Comparative Example 7) = 1
[8] = before drying (crystals as obtained), weight reduction at 100° C.
[9] = after drying in vacuo at 140° C.

Structure (SMILES) | Miscibility, Epoxy resin [1] | Miscibility, Nafion [1] | Miscibility, PMMA [1] | Bound water (number of moles of bound water per mole of complex) [2] | Relative luminescence intensity [3, 6] | Miscibility, Acetone [4] | Miscibility, Chloroform [4] | Miscibility, Toluene [4] | Miscibility, Water [4] | Luminescence quantum yield [3] | Relative luminescence intensity [3, 7] | Number of moles of bound water per mole of complex [2, 8] | Relative luminescence intensity ([5]; Eu 0.7 wt %, relative to Eu(PMS)3 (Comparative Example 11) = 1) | Luminescence quantum yield ([5]; rare earth ion 0.7 wt %, excitation 465 nm, luminescence 612 nm) | Number of moles of bound water per mole of complex [2, 9]
O=C(C=C([O-])C(F)(F)F)C(F)(F)F.O=C(C=C([O-])C(F)(F)F)C(F)(F)F.O=C(C=C([O-])C(F)(F)F)C(F)(F)F.O=P(c1ccccc1)(c1ccccc1)c1ccccc1.O=P(c1ccccc1)(c1ccccc1)c1ccccc1.[Eu+3] [Eu(HFA)3(TPPO)2, reference compound] | ◯ (dissolves up to 5 wt %) | Δ (disperses up to 5 wt %, but there is turbidity) | Δ (disperses up to 5 wt %, but there is turbidity) | 0.00 | 4.6 | ⊚ | ◯ | ◯ | X |  |  |  |  |  | 
O=C(C=C([O-])C(F)(F)F)C(F)(F)F.O=C(C=C([O-])C(F)(F)F)C(F)(F)F.O=C(C=C([O-])C(F)(F)F)C(F)(F)F.[Eu+3] [Eu(HFA)3, reference compound] | ◯ (dissolves up to 5 wt %) | Δ (disperses up to 5 wt %, but there is turbidity) | X | 2.00 | 1.0 | ⊚ | X | X | X | 8.0% |  |  |  |  | 
O=S(=O)([N-]S(=O)(=O)C(F)(F)F)C(F)(F)F.O=S(=O)([N-]S(=O)(=O)C(F)(F)F)C(F)(F)F.O=S(=O)([N-]S(=O)(=O)C(F)(F)F)C(F)(F)F.[2H]C([2H])([2H])S(=O)C([2H])([2H])[2H].[2H]C([2H])([2H])S(=O)C([2H])([2H])[2H].[2H]C([2H])([2H])S(=O)C([2H])([2H])[2H].[2H]C([2H])([2H])S(=O)C([2H])([2H])[2H].[2H]C([2H])([2H])S(=O)C([2H])([2H])[2H].[2H]C([2H])([2H])S(=O)C([2H])([2H])[2H].[2H]C([2H])([2H])S(=O)C([2H])([2H])[2H].[2H]C([2H])([2H])S(=O)C([2H])([2H])[2H].[Eu+3] [Eu(PMS)3 (DMSO-d6)8, reference compound] |  |  |  |  |  |  |  |  |  | 44.0% | 1.6 |  |  |  | 
O=S(=O)([N-]S(=O)(=O)C(F)(F)F)C(F)(F)F.O=S(=O)([N-]S(=O)(=O)C(F)(F)F)C(F)(F)F.O=S(=O)([N-]S(=O)(=O)C(F)(F)F)C(F)(F)F.O=S(c1ccccc1)c1ccccc1.O=S(c1ccccc1)c1ccccc1.O=S(c1ccccc1)c1ccccc1.O=S(c1ccccc1)c1ccccc1.O=S(c1ccccc1)c1ccccc1.O=S(c1ccccc1)c1ccccc1.O=S(c1ccccc1)c1ccccc1.O=S(c1ccccc1)c1ccccc1.[Eu+3] [Eu(PMS)3(DPSO)8] | ◯ (dissolves up to 5 wt %) | ◯ (dissolves up to 5 wt %) | ◯ (dissolves up to 5 wt %) | 0.00 |  | ⊚ | ◯ | ◯ | X | 32.0% | 41.7 | water was not coordinated | 710 | 39.0% | 
O=P(c1ccccc1)(c1ccccc1)c1ccccc1.O=P(c1ccccc1)(c1ccccc1)c1ccccc1.O=P(c1ccccc1)(c1ccccc1)c1ccccc1.O=P(c1ccccc1)(c1ccccc1)c1ccccc1.O=P(c1ccccc1)(c1ccccc1)c1ccccc1.O=P(c1ccccc1)(c1ccccc1)c1ccccc1.O=P(c1ccccc1)(c1ccccc1)c1ccccc1.O=P(c1ccccc1)(c1ccccc1)c1ccccc1.O=S(=O)([N-]S(=O)(=O)C(F)(F)F)C(F)(F)F.O=S(=O)([N-]S(=O)(=O)C(F)(F)F)C(F)(F)F.O=S(=O)([N-]S(=O)(=O)C(F)(F)F)C(F)(F)F.[Tb+3] [Tb(PMS)3(TPPO)8] | ◯ (dissolves up to 5 wt %) | ◯ (dissolves up to 5 wt %) | ◯ (dissolves up to 5 wt %) | 0.08 |  | ⊚ | ⊚ | ◯ | X |  |  | 1.27 |  |  | 0.08
O=P(c1ccccc1)(c1ccccc1)c1ccccc1.O=P(c1ccccc1)(c1ccccc1)c1ccccc1.O=P(c1ccccc1)(c1ccccc1)c1ccccc1.O=P(c1ccccc1)(c1ccccc1)c1ccccc1.O=P(c1ccccc1)(c1ccccc1)c1ccccc1.O=P(c1ccccc1)(c1ccccc1)c1ccccc1.O=P(c1ccccc1)(c1ccccc1)c1ccccc1.O=P(c1ccccc1)(c1ccccc1)c1ccccc1.O=S(=O)([N-]S(=O)(=O)C(F)(F)F)C(F)(F)F.O=S(=O)([N-]S(=O)(=O)C(F)(F)F)C(F)(F)F.O=S(=O)([N-]S(=O)(=O)C(F)(F)F)C(F)(F)F.[Yb+3] [Yb(PMS)3(TPPO)8] | ◯ (dissolves up to 5 wt %) | ◯ (dissolves up to 5 wt %) | ◯ (dissolves up to 5 wt %) | 0.27 |  | ⊚ | ⊚ | ◯ | X |  |  | 1.52 |  |  | 0.27
